According to patent publication US7585850B2 (Adenobio N.V., priority 2005, dated 2009):

Assays:
normotensive Wistar rats [1] = assay: Effect of oral and IV 330A1 on blood pressure of normotensive Wistar rats; type: in vivo, rat
Method: (§1) The experiment was performed in 10 male Wistar rats (340 to 410 g; 5 in the treated group and 5 in the control group). Animals were maintained for two weeks of adaptation in humidity and temperature controlled room and were fed a standard diet (U.A.R, Villemoisson, France). Each animal, (control or treated) was anaesthetized with sodium pentobarbital (6%, 0.9 ml/Kg body weight). The left carotid artery was cannulated with a PE50 polyethylene catheter connected to a pressure transducer (MacLabs, ADInstruments, Hastings, UK). Blood pressure was monitored continuously and recorded. Adb011 was administered orally by gavage at the dose of 50 mg/kg (in Arabic syrup 5%).
(§2) The experiment is similar to example 3.
• 330A1-I (n=4): receiving by gavage the product (50 mg/kg in suspension with Arabic syrup 30 mg/ml) • Control-(n=4)I: receiving by gavage Arabic syrup 30 mg/ml alone • 330A1-II: receiving the product IV (10 mg/kg in suspension with distilled water 30 mg/ml) • Control-II (n=4): receiving IV distilled water

[2] = in vivo; cited from earlier work
normotensive Wistar rats [3] = assay: Effect of oral Adb111 (AMP complex) on blood pressure of normotensive Wistar rats and comparison with AMP; type: in vivo, rat
Method: as §1, with “Adb011 was administered orally by gavage at the dose of 50 mg/kg (in Arabic syrup 5%).” left out
as §2

hypoxic rats = assay: Effect of oral Adb011 on chronic pulmonary hypertension caused by hypoxia in rats; type: in vivo, rat
Method: Animals were divided in three groups: • Adb-011 chronic treatment (n=5): receiving by gavage Adb-011 (50 mg/kg in suspension with Arabic syrup, 20 mg/ml) twice a day (morning and evening) for 14 days. • Control (n=6): receiving by gavage vehicle (suspension of Arabic syrup 20 mg/kg). • Adb-011 acute treatment (n=6): receiving by gavage vehicle for 14 days and orally treated with a single dose of Adb-011 on the last day (day of surgery). Rats were placed in a chamber where air was circulated at a pressure of 380 Torr, which corresponds to an altitude of 5500 meters. The chamber was open twice a day for ˜30 minutes to treat animals and to replace food and water. On the day of surgery the animals were removed from the chamber and anesthetized with pentobarbital sodium (60 mg/kg ip). A polyethylene catheter (PE-50) was placed in the aortic arch via the left carotid artery. An introducer was advanced in the right ventricle via the right jugular vein. Adequate placement of both catheters was established by the pressure waveform. Both catheters were connected to a pressure transducer (Biopac MP30, BIOPAC Systems, Inc.). The time-lag between last dose of Adb-011 (in group 1) and blood pressure measurement was 14 hours.

rats = assay: Effects of Adb011 by the IV route on systemic arterial pressure in rats; type: in vivo, rat; settings: 10 mg/kg IV bolus
Method: as §1, §2
• Adb-011 (n=4): receiving IV a bolus of Adb-011 (10 mg/kg in suspension with distilled water 30 mg/ml) • Control (n=3): receiving IV (distilled water)
In the treated group, blood pressure began to decrease after 15 min of the Adb011 administration and reached a significant maximal decrease of 48 mmHg at […].

normotensive Wistar rats [4] = assay: Effect of oral administration of Adb011 on blood pressure of normotensive Wistar rats; type: in vivo, rat
Method: as §1
Results are reported as mean±SEM of n experiments. Multiple measurement analysis was performed using ANOVA, followed by Bonferroni-Dunn test. Statistical significance was accepted for p values less than 0.05.
Blood pressure began to decrease after 30 minutes of Adb-011 administration. It reached a significant maximal decrease of −13.9 mmHg between 70 and 100 min. (with respect to vehicle values, p<0.05 ANOVA multiple measurement analysis followed by a Bonferroni-Dunn test) and returned to normal after 110-120 minutes.

[5] = in vivo; cited from earlier work; remark: listed apart in the source
[6] = oral administration, conclusion over doses
[7] = 50 mg/kg p.o. twice a day for 14 days, chronic hypoxia
[8] = HxC + A 15 min: single oral dose on day of surgery
[9] = HxC + A 60 min: single oral dose on day of surgery, 60 min

Compound: CC(=O)Nc1ccc(C(=O)O)cc1.CC(O)CN(C)C [330A1]
- effect on mean arterial blood pressure (normotensive Wistar rats [1]; 10 mg/kg IV): minor effect
- effect on mean arterial blood pressure (normotensive Wistar rats [1]; 50 mg/kg by gavage): minor effect

Compound: Nc1ncnc2c1ncn2[C@@H]1O[C@H](COP(=O)(O)O)[C@@H](O)[C@H]1O [AMP, adenosine monophosphate, reference compound]
- gastrointestinal bioavailability [2]: poor
- time after administration at which blood pressure began to decrease (normotensive Wistar rats [3]; 100 mg/kg by gavage): 45 min
- time after which blood pressure returned to normal values (normotensive Wistar rats [3]; 100 mg/kg by gavage): 120 min
- time after administration at which blood pressure began to decrease (normotensive Wistar rats [3]; 300 mg/kg by gavage): 45 min
- time after which blood pressure returned to normal values (normotensive Wistar rats [3]; 300 mg/kg by gavage): 120 min
- time for which blood pressure was lowered (normotensive Wistar rats [3]; [6]): 60 min

Compound: CC(=O)Nc1ccc(C(=O)O)cc1.CC(=O)Nc1ccc(C(=O)O)cc1.CC(=O)Nc1ccc(C(=O)O)cc1.CC(O)CN(C)C.CC(O)CN(C)C.CC(O)CN(C)C.Nc1ncnc2c1ncn2[C@@H]1O[C@H](CO)[C@@H](O)[C@H]1O [Adb011]
- change of right ventricular hypertrophy (hypoxic rats; [7]): -75 mg
- decrease of pulmonary hypertension (hypoxic rats; [7]): 21.5 mmHg
- effect on systemic pressure (hypoxic rats; [7]): no effect
- RVp (right ventricular pressure) (hypoxic rats; HxA: chronic treatment 50 mg/kg p.o. twice a day 14 days, measured 14 h after last dose): 53.30 ± 461 mmHg
- (LV + S)w (left ventricular + septum weight) (hypoxic rats; HxA: chronic treatment 14 days): 729 ± 56
- C(a − v)O2 (arterial − venous O2 difference) (hypoxic rats; HxA: chronic treatment 14 days): 8.0 ± 0.4 mL O2/dL blood
- CaO2 (arterial O2 content) (hypoxic rats; HxA: chronic treatment 14 days): 29.2 ± 0.9 mL O2/dL of blood
- Cardiac output (hypoxic rats; HxA: chronic treatment 14 days): 162 ± 8 mL/min/kg
- CvO2 (venous O2 content) (hypoxic rats; HxA: chronic treatment 14 days): 21.2 ± 1.0 mL O2/dL of blood
- HR (heart rate) (hypoxic rats; HxA: chronic treatment 14 days): 364 ± 15 beat/min
- MABP (mean arterial blood pressure) (hypoxic rats; HxA: chronic treatment 14 days): 113 ± 2 mmHg
- RVw (right ventricular weight) (hypoxic rats; HxA: chronic treatment 14 days): 362 ± 10 mg
- SV (stroke volume) (hypoxic rats; HxA: chronic treatment 14 days): 0.45 ± 0.02 mL/kg
- SVR (systemic vascular resistance) (hypoxic rats; HxA: chronic treatment 14 days): 0.70 ± 0.03
- SaO2 (arterial oxygen saturation) (hypoxic rats; HxA: chronic treatment 14 days): 92 ± 1 %
- VO2 (oxygen consumption) (hypoxic rats; HxA: chronic treatment 14 days): 12.81 ± 0.29 mL/min/kg
- (LV + S)w (left ventricular + septum weight) (hypoxic rats; [8]): 675 ± 21
- C(a − v)O2 (arterial − venous O2 difference) (hypoxic rats; [8]): 8.3 ± 0.5 mL O2/dL blood
- CaO2 (arterial O2 content) (hypoxic rats; [8]): 27.3 ± 1.4 mL O2/dL of blood
- Cardiac output (hypoxic rats; [8]): 164 ± 11 mL/min/kg
- CvO2 (venous O2 content) (hypoxic rats; [8]): 19.0 ± 1.5 mL O2/dL of blood
- HR (heart rate) (hypoxic rats; [8]): 352 ± 12 beat/min
- MABP (mean arterial blood pressure) (hypoxic rats; [8]): 107 ± 5 mmHg
- RVw (right ventricular weight) (hypoxic rats; [8]): 436 ± 21 mg
- SV (stroke volume) (hypoxic rats; [8]): 0.47 ± 0.03 mL/kg
- SVR (systemic vascular resistance) (hypoxic rats; [8]): 0.68 ± 0.06
- SaO2 (arterial oxygen saturation) (hypoxic rats; [8]): 82 ± 4%
- VO2 (oxygen consumption) (hypoxic rats; [8]): 13.38 ± 0.61 mL/min/kg
- RVp (right ventricular pressure) (hypoxic rats; HxC + A 15 min: single oral dose on day of surgery, 15 min): 75.17 ± 0.95 mmHg
- HR (heart rate) (hypoxic rats; [9]): 329 ± 4 beat/min
- MABP (mean arterial blood pressure) (hypoxic rats; [9]): 92 ± 5 mmHg
- RVp (right ventricular pressure) (hypoxic rats; [9]): 52.83 ± 3.83 mmHg
- reduction of pulmonary artery pressure (hypoxic rats; acute single oral dose, rats with fixed pulmonary hypertension): −22 mmHg
- maximal decrease of blood pressure (rats): 48 mmHg
- mean arterial blood pressure two hours after injection (rats): still very low two hours after injection
- time after administration at which blood pressure began to decrease (rats): 15 min
- time of maximal decrease of blood pressure (rats): 15 min
- time after which blood pressure returned to normal (normotensive Wistar rats [4]; 50 mg/kg p.o.): 110 to 120 min
- time after administration at which blood pressure began to decrease (normotensive Wistar rats [4]; 50 mg/kg p.o. by gavage, anaesthetized rats): 30 min
- maximal decrease of blood pressure (normotensive Wistar rats [4]; 50 mg/kg p.o., with respect to vehicle values, p<0.05): −13.9 mmHg

Compound: CC(=O)Nc1ccc(C(=O)O)cc1.CC(=O)Nc1ccc(C(=O)O)cc1.CC(=O)Nc1ccc(C(=O)O)cc1.CC(O)CN(C)C.CC(O)CN(C)C.CC(O)CN(C)C.Nc1ncnc2c1ncn2[C@@H]1O[C@H](COP(=O)(O)O)[C@@H](O)[C@H]1O [Adb111]
- time after administration at which blood pressure began to decrease (normotensive Wistar rats [3]; 100 mg/kg by gavage): 45 min
- time after which blood pressure returned to normal values (normotensive Wistar rats [3]; 100 mg/kg by gavage): 180 min
- time after administration at which blood pressure began to decrease (normotensive Wistar rats [3]; 300 mg/kg by gavage): 45 min
- time after which blood pressure returned to normal values (normotensive Wistar rats [3]; 300 mg/kg by gavage): 180 min
- time after oral administration at which blood pressure lowering began (normotensive Wistar rats [3]; [6]): 45 min
- time for which blood pressure was lowered (normotensive Wistar rats [3]; [6]): up to 165 min
- bioavailability and efficacy compared with natural AMP (normotensive Wistar rats [3]; oral, comparable doses): better bioavailabity and efficacy over natural AMP

Compound: Nc1ncnc2c1ncn2[C@@H]1O[C@H](CO)[C@@H](O)[C@H]1O [adenosine]
- plasma half-life [5]: less than 5 seconds
